Literature values, collected in US20230157281A1, “COMPOSITIONS AND METHODS FOR REPELLING ANIMALS FROM AN OBJECT” (Texas Tech University System, priority 2020, published 2023).
Like-named read-outs stand apart in the source and are kept apart here.

Legend:
[1] = system: cats
[2] = system: cats; details: preliminary data from another study; dosage not detailed

CC(C)(S)CCO [MMB, 3-Mercapto-3-Methyl Butanol]
use of litter box ([1]; added to the litter at 50 μg/kg of litter): did not alter the use of litterbox
use of litter box ([1]; substance used in litter, result in words): did not increase the use of litter box
interest shown by male and female cats [2]: showed interests

CC(C)(CCO)SC[C@H](N)C(=O)O [felinine]
use of litter box ([1]; substance used in litter, result in words, listed as I-felinine): attract cats to eliminate in the litter box
